# Measured values published in patent publication US9402398B2, “Herbicidal compounds” (SYNGENTA PARTICIPATIONS AG, priority 2012, dated 2016).
# How the values were obtained:
# Assay type in all cases: in vivo
# [1] = system: Alopecurus myosuroides (ALOMY); assay: Herbicidal glasshouse test, post-emergence; settings: post-emergence (sprayed after 8 days cultivation), 1000 g/h, evaluated after 13 days
# Protocol: (§1) Seeds of a variety of test species are sown in standard soil in pots (Alopecurus myosuroides (ALOMY), Setaria faberi (SETFA), Echinochloa crus-galli (ECHCG), Solanum nigrum (SOLNI), Amaranthus retoflexus (AMARE), Ipomoea hederacea (IPOHE)). After cultivation for one day (pre-emergence) or after 8 days cultivation (post-emergence) under controlled conditions in a glasshouse (at 24/16° C., day/night; 14 hours light; 65% humidity), the plants are sprayed with an aqueous spray solution derived from the formulation of the technical active ingredient in acetone/water (50:50) solution containing 0.5% Tween 20 (polyoxyethelyene sorbitan monolaurate, CAS RN 9005-64-5). Compounds are applied at 1000 g/h. The test plants are then grown in a glasshouse under controlled conditions in a glasshouse (at 24/16° C., day/night; 14 hours light; 65% humidity) and watered twice daily. After 13 days for pre and post-emergence, the test is evaluated for the percentage damage caused to the plant. The biological activities are shown in the following table on a five point scale (5=80-100%; 4=60-79%; 3=40-59%; 2=20-39%; 1=0-19%).
# [2] = system: Amaranthus retoflexus (AMARE); assay: Herbicidal glasshouse test, post-emergence; settings: post-emergence (sprayed after 8 days cultivation), 1000 g/h, evaluated after 13 days
# Protocol: as §1
# [3] = system: Echinochloa crus-galli (ECHCG); assay: Herbicidal glasshouse test, post-emergence; settings: post-emergence (sprayed after 8 days cultivation), 1000 g/h, evaluated after 13 days
# Protocol: as §1
# [4] = system: Ipomoea hederacea (IPOHE); assay: Herbicidal glasshouse test, post-emergence; settings: post-emergence (sprayed after 8 days cultivation), 1000 g/h, evaluated after 13 days
# Protocol: as §1
# Setaria faberi (SETFA) [5] = assay: Herbicidal glasshouse test, post-emergence; settings: post-emergence (sprayed after 8 days cultivation), 1000 g/h, evaluated after 13 days
# Protocol: as §1
# Solanum nigrum (SOLNI) [6] = assay: Herbicidal glasshouse test, post-emergence; settings: post-emergence (sprayed after 8 days cultivation), 1000 g/h, evaluated after 13 days
# Protocol: as §1
# [7] = system: Alopecurus myosuroides (ALOMY); assay: Herbicidal glasshouse test, pre-emergence; settings: pre-emergence (sprayed after cultivation for one day), 1000 g/h, evaluated after 13 days
# Protocol: as §1
# [8] = system: Amaranthus retoflexus (AMARE); assay: Herbicidal glasshouse test, pre-emergence; settings: pre-emergence (sprayed after cultivation for one day), 1000 g/h, evaluated after 13 days
# Protocol: as §1
# [9] = system: Echinochloa crus-galli (ECHCG); assay: Herbicidal glasshouse test, pre-emergence; settings: pre-emergence (sprayed after cultivation for one day), 1000 g/h, evaluated after 13 days
# Protocol: as §1
# [10] = system: Ipomoea hederacea (IPOHE); assay: Herbicidal glasshouse test, pre-emergence; settings: pre-emergence (sprayed after cultivation for one day), 1000 g/h, evaluated after 13 days
# Protocol: as §1
# Setaria faberi (SETFA) [11] = assay: Herbicidal glasshouse test, pre-emergence; settings: pre-emergence (sprayed after cultivation for one day), 1000 g/h, evaluated after 13 days
# Protocol: as §1
# Solanum nigrum (SOLNI) [12] = assay: Herbicidal glasshouse test, pre-emergence; settings: pre-emergence (sprayed after cultivation for one day), 1000 g/h, evaluated after 13 days
# Protocol: as §1
Compound,"percentage damage caused to the plant, five point scale, POST Application ALOMY [1]","percentage damage caused to the plant, five point scale, POST Application AMARE [2]","percentage damage caused to the plant, five point scale, POST Application ECHCG [3]","percentage damage caused to the plant, five point scale, POST Application IPOHE [4]","percentage damage caused to the plant, five point scale, POST Application SETFA (Setaria faberi (SETFA) [5])","percentage damage caused to the plant, five point scale, POST Application SOLNI (Solanum nigrum (SOLNI) [6])","percentage damage caused to the plant, five point scale, PRE Application ALOMY [7]","percentage damage caused to the plant, five point scale, PRE Application AMARE [8]","percentage damage caused to the plant, five point scale, PRE Application ECHCG [9]","percentage damage caused to the plant, five point scale, PRE Application IPOHE [10]","percentage damage caused to the plant, five point scale, PRE Application SETFA (Setaria faberi (SETFA) [11])","percentage damage caused to the plant, five point scale, PRE Application SOLNI (Solanum nigrum (SOLNI) [12])"
Cc1cc(C(=O)Nc2nnnn2C)c(=O)n(-c2ccc(F)c(F)c2)n1 [Compound 1.013],5 (5=80-100%),5 (5=80-100%),5 (5=80-100%),5 (5=80-100%),5 (5=80-100%),5 (5=80-100%),5 (5=80-100%),5 (5=80-100%),5 (5=80-100%),4 (4=60-79%),5 (5=80-100%),5 (5=80-100%)
Cc1cc(C(=O)Nc2nnnn2C)c(=O)n(Cc2cccc(F)c2)n1 [Compound 1.016],4 (4=60-79%),5 (5=80-100%),4 (4=60-79%),3 (3=40-59%),1 (1=0-19%),5 (5=80-100%),2 (2=20-39%),5 (5=80-100%),4 (4=60-79%),4 (4=60-79%),5 (5=80-100%),5 (5=80-100%)
Cc1cc(C(=O)Nc2nnnn2C)c(=O)n(-c2ccc(F)cc2Br)n1 [Compound 1.020],5 (5=80-100%),5 (5=80-100%),5 (5=80-100%),5 (5=80-100%),5 (5=80-100%),5 (5=80-100%),5 (5=80-100%),5 (5=80-100%),5 (5=80-100%),5 (5=80-100%),5 (5=80-100%),5 (5=80-100%)
Cc1cc(C(=O)Nc2nnnn2C)c(=O)n(-c2cccc(Br)c2)n1 [Compound 1.007],5 (5=80-100%),5 (5=80-100%),5 (5=80-100%),5 (5=80-100%),5 (5=80-100%),5 (5=80-100%),5 (5=80-100%),5 (5=80-100%),5 (5=80-100%),3 (3=40-59%),5 (5=80-100%),5 (5=80-100%)
